Measurements published in PMC3792958, “Olomoucine II, but Not Purvalanol A, Is Transported by Breast Cancer Resistance Protein (ABCG2) and P-Glycoprotein (ABCB1)” (PLoS ONE, 2013).

How the values were obtained:
ABCG2 [1] = tested on: ABCG2; set-up: method as in PMID 18841444; conditions: in vitro hematoporphyrin transport, Sf9 membrane vesicles; cited from earlier work
ABCG2 [2] = target: T1, ABCG2 (Homo sapiens, UniProt Q9UNQ0); assay: Cellular monolayer transport assay, MDCKII-ABCG2 cells
T1 sequence (Q9UNQ0 1-655): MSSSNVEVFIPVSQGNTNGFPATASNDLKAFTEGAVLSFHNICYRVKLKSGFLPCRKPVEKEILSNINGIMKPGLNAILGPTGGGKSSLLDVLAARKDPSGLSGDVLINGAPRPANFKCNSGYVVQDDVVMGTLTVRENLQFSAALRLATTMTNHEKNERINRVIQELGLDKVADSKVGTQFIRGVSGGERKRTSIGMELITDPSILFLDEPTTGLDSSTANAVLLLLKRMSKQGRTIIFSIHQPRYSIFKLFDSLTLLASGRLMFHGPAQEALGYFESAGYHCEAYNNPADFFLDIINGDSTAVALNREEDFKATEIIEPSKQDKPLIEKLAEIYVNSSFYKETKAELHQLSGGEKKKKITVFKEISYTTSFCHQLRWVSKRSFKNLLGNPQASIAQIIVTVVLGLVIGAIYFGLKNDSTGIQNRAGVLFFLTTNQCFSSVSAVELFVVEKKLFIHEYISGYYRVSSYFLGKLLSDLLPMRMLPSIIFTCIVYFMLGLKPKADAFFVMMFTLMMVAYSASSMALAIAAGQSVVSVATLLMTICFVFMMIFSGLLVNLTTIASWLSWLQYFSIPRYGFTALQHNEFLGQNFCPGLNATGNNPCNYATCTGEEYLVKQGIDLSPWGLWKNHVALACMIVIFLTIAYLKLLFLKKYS
Method: (§1) ABCG2- and ABCB1-transduced MDCKII sublines (MDCKII-ABCG2 and MDCKII-ABCB1), which stably express ABCG2 and ABCB1 protein, respectively, were purchased from dr. Alfred Schinkeĺs lab (The Netherlands Cancer Institute, Amsterdam, The Netherlands). These transduced sublines as well as the parental MDCKII cell line (MDCKII-par) were routinely cultured in complete Dulbecco’s modified Eagle’s medium with 10% fetal bovine serum. 100 U/ml penicillin and 100 µg/ml streptomycin were used while growing the cells on the membrane inserts. All cells were routinely cultivated in antibiotic-free medium and periodically tested for mycoplasma contamination. […] Cells from passages 15 to 25 were used in all in vitro studies. Dimethyl sulfoxide was applied as a CDKi solvent in concentrations not exceeding 0.1%.
(§2) MDCKII-ABCG2, MDCKII-ABCB1 or MDCKII-par cells were seeded at a density of 1×10^6 per insert 72 h before experiment. The medium was replaced after 24 and 48 h of cultivation. One hour before the start of the experiment, the cells were washed with prewarmed 1×phospate buffered saline on both the apical and basal sides and Opti-MEM with or without fumitremorgin C or LY335979 was added into both compartments. At time 0, the experiment was started by replacing the medium with fresh Opti-MEM with or without CDKi and fumitremorgin C or LY335979 in the appropriate chamber. Samples were taken every 2 h from the opposite chambers for the duration of the experiment (6 h). Concentration of CDKi was determined via HPLC/MS analysis. Immediately after the experiment, cellular monolayer integrity was examined using fluorescein isothiocyanate labeled dextran (MW = 40 kDa). Dextran leakage was accepted up to 1% per hour.
(§3) HPLC/MS analysis using LC 20A Prominence chromatographic system (Shimadzu, Kyoto, Japan) coupled with LCQ Max advantage mass spectrometer (Thermo Finnigan, San Jose, CA, USA) was used for the quantification of olomoucine II and purvalanol A. The separation was performed on a Hypersil GOLD C18 column (100 × 4.6 mm, particle size 3 µm) protected with an OPTI-GUARD 1 mm guard column C18. The mobile phase flow rate was 0.35 ml/min and the column temperature was maintained at 40°C. The data were processed using Xcalibur 2.0 software (Thermo Finnigan, San Jose, CA, USA).
(§4) The detector was set as follows: spray voltage of 4.5 kV, capillary temperature of 320°C, sheet and auxiliary gas flows of 30 and 12 arbitrary units, respectively. […] The collision energies were 38% and 40% for olomoucine II and IS, respectively. […] The sample stability was evaluated within 94 h.
as §4, with “5.5” for “4.5”, “340°C,” for “320°C,”, “28” for “30”, “13” for “12”, “purvalanol A” for “olomoucine II”, “hours.” for “h.”
(§5) Transport of olomoucine II by ABCG2 and ABCB1 was tested in vitro using transport assays across the polarized monolayers of MDCKII-ABCG2 and MDCKII-ABCB1 cells, respectively. In this method, the transport across the monolayer is greatly accelerated in the basolateral to apical direction, when the compound is a substrate of examined transporter. Based on our previous studies, three olomoucine II concentrations (100 nM, 1 µM and 10 µM) were tested and transport ratios (r; olomoucine II transport in basolateral to apical direction divided by transport in apical to basolateral direction) 2 h after olomoucine II addition were calculated.

ABCG2 [3] = assay: as above; conditions: human
Method: as §1, §2, §3, §4
as §4, with “5.5” for “4.5”, “340°C,” for “320°C,”, “28” for “30”, “13” for “12”, “purvalanol A” for “olomoucine II”, “hours.” for “h.”
as §5

ABCB1 [4] = target: ABCB1 (Homo sapiens, UniProt P08183); assay: Cellular monolayer transport assay, MDCKII-ABCB1 cells
Method: as §1, §2, §3, §4
as §4, with “5.5” for “4.5”, “340°C,” for “320°C,”, “28” for “30”, “13” for “12”, “purvalanol A” for “olomoucine II”, “hours.” for “h.”
as §5

ABCB1 [5] = assay: as above; conditions: human
Method: as §1, §2, §3, §4
as §4, with “5.5” for “4.5”, “340°C,” for “320°C,”, “28” for “30”, “13” for “12”, “purvalanol A” for “olomoucine II”, “hours.” for “h.”
as §5

[6] = Cellular monolayer transport assay, parental MDCKII-par cells; conditions: dog, MDCK
Method: as §1, §2, §3, §4
as §4, with “5.5” for “4.5”, “340°C,” for “320°C,”, “28” for “30”, “13” for “12”, “purvalanol A” for “olomoucine II”, “hours.” for “h.”
as §5

MDCKII-par cells = assay: as above; conditions: olomoucine II 100 nM and 1 µM, 2 h, 1 µM LY335979 (endogenous canine Abcb1 inhibitor)
Method: as §1, §2, §3, §4
as §4, with “5.5” for “4.5”, “340°C,” for “320°C,”, “28” for “30”, “13” for “12”, “purvalanol A” for “olomoucine II”, “hours.” for “h.”
as §5

MDCKII cells = assay: Generation of sulfated conjugate in MDCKII cells (HPLC/MS); format: in vitro ADME, canine; conditions: MDCKII-ABCG2, MDCKII-ABCB1 and MDCKII-par; MS analysis
Method: Concentration of CDKi was determined via HPLC/MS analysis. […] Dextran leakage was accepted up to 1% per hour.
In olomoucine II transport experiments, we recorded time-dependent generation of an unknown peak in the fifth minute of HPLC analysis in all three cell lines tested (MDCKII-ABCG2, MDCKII-ABCB1 and MDCKII-par). Based on the MS analysis, the compound was identified as a sulfated conjugate of olomoucine II (Fig. 2). […] On the other hand, the amount of sulfated metabolite increased with time and caused remarkable distortion of the results of parent compound. Therefore, when analyzing the data of unconjugated olomoucine II, the time interval was shortened to 2 hours in order to reduce the misrepresenting effect of sulfated olomoucine II. Considering ionic nature of sulfated olomoucine II, it is obvious that this compound cannot escape from the cells via passive diffusion but must utilize special transport system(s). Relative quantification of olomoucine II sulfate allowed us to describe its pharmacokinetic behavior in all MDCKII cell sublines.
Figure 2 Mass spectra of an unknown peak eluted in the fifth minute of HPLC analysis of olomoucine II transport. (A) spectrum in positive mode, (B) MS^2 in positive mode, (C) negative mode, (D) MS^2 in negative mode. […]

ABCG2 [7] = conditions: cited from earlier work; for inhibition of ABCG2: in vitro and in situ levels
[8] = tested on: ABCG2-expressing cell lines; conditions: combination method of Chou-Talalay; cited from earlier work
[9] = tested on: multidrug resistance associated protein 1 (ABCC1); set-up: method as in PMID 20699410; conditions: cited from earlier work
[10] = tested on: multidrug resistance associated protein 2 (ABCC2); set-up: method as in PMID 20699410; conditions: cited from earlier work
ABCG2 [11] = conditions: cited from earlier work
ABCB1 [12] = conditions: bovine brain microvessel endothelial cell monolayers; cited from earlier work

Sequence of ABCB1 (Homo sapiens, UniProt P08183) (P08183 whole entry): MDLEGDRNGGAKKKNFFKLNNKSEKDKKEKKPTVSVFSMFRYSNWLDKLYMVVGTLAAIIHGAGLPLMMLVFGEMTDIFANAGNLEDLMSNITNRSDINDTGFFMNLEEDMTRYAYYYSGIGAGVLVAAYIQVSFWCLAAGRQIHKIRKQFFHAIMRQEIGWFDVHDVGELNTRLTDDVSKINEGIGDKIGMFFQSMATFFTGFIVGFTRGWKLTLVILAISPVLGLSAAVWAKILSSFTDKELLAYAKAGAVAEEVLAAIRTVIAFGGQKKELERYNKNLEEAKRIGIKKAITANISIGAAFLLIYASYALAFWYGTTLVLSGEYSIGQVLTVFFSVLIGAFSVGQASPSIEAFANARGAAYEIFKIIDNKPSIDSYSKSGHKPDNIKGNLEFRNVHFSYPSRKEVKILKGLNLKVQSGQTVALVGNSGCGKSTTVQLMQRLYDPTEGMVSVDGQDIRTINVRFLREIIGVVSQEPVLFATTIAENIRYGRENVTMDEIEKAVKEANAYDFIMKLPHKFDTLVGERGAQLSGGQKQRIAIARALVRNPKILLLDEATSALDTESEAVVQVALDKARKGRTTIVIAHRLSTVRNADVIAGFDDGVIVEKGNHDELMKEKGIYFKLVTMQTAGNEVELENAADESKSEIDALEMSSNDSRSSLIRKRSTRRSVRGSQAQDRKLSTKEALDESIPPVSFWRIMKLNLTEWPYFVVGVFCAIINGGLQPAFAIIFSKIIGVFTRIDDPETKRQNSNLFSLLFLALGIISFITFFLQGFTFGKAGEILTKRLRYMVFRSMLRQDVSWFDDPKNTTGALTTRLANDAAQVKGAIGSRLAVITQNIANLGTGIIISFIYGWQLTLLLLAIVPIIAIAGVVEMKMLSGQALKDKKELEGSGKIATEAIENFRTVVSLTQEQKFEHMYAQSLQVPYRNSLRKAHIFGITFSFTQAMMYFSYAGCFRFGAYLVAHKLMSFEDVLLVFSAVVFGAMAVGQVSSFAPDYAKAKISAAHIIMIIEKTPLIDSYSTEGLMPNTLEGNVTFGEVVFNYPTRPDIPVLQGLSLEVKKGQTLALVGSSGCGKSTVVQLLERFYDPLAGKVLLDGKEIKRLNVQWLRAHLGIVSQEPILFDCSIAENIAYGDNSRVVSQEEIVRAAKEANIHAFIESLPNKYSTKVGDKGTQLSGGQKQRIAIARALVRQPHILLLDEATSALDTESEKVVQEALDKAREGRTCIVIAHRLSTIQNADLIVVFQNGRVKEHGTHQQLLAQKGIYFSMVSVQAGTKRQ

For `COc1cc2ncnc(Nc3cccc(O)c3)c2cc1OC` [WHI-P180], the ABCG2 inhibition (ABCG2 [1]) is given as “ABCG2 inhibition”.
With `CC[C@H](CO)Nc1nc(NCc2ccccc2O)c2ncn(C(C)C)c2n1` [olomoucine II] the efflux ratio at 2 h, 100 nM (ABCG2 [2]; human) was 2.27, the efflux ratio at 2 h, 10 µM (ABCG2 [2]; human) was 1.29 and the ABCG2 substrate status (ABCG2 [2]; in vitro, MDCKII-ABCG2 monolayers) was “dual substrate of ABCG2 and ABCB1”. For the same compound, the “transport ratio r (basolateral to apical divided by apical to basolateral)” value (ABCG2 [2]; olomoucine II 1 µM, 2 h, without inhibitor) was 2.31, the efflux ratio at 2 h, 100 nM (ABCG2 [3]; with fumitremorgin C 5 µM) was 1.32 and the efflux ratio at 2 h, 1 µM (ABCG2 [3]; with fumitremorgin C 5 µM) was 1.21. For the same compound, the “asymmetry in transport in MDCKII-ABCB1 cells in comparison with ABCG2 transduced cells” value (ABCB1 [4]; 100 nM and 1 µM, 2 h) was “approximately 3 fold”, the efflux ratio at 2 h, 100 nM (ABCB1 [4]; human, MDCK-MDR1) was 6.45 and the efflux ratio at 2 h, 1 µM (ABCB1 [4]; human, MDCK-MDR1) was 6.83. For the same compound, the efflux ratio at 2 h, 10 µM (ABCB1 [4]; human, MDCK-MDR1) was 2.51, the ABCB1 substrate status (ABCB1 [4]; in vitro, MDCKII-ABCB1 monolayers) was “substrate of ABCB1” and the efflux ratio at 2 h, 100 nM (ABCB1 [5]; MDCK-MDR1, with LY335979 1 µM) was 1.48. The efflux ratio at 2 h, 1 µM (ABCB1 [5]; MDCK-MDR1, with LY335979 1 µM) was 1.83, the efflux ratio at 2 h, 100 nM [6] was 1.45 and the efflux ratio at 2 h, 1 µM [6] was 1.39. The efflux ratio at 2 h, 10 µM [6] was 1.64, the “change in r values after adding LY335979” value (MDCKII-par cells) was “did not observe statistically significant changes” and the “sulfatation in MDCKII cells” value (MDCKII cells) was “time-dependent generation of a metabolite”. The “transport by placental ABCB1/ABCG2 in perfused rat placenta” value (placental ABCB1/ABCG2) was “actively pumped from fetus to mother”, the “ABCG2 inhibitory potency compared with fumitremorgin C” value (ABCG2 [7]) was “comparable or even higher potency than fumitremorgin C” and the “inhibition of ABCG2” value (ABCG2 [7]) was “inhibition of ABCG2”. The “potentiation of the antiproliferative effect of mitoxantrone” value [8] was “synergistically potentiate”.
In the case of `CC(C)[C@H](CO)Nc1nc(Nc2cccc(Cl)c2)c2ncn(C(C)C)c2n1` [purvalanol A], the ABCG2 substrate status (ABCG2 [2]; human) is reported as “not an ABCG2 substrate”, the efflux ratio at 6 h, 1 µM (ABCG2 [2]; human) is reported as 1.28 and the efflux ratio at 6 h, 10 µM (ABCG2 [2]; human) is reported as 1.23. The efflux ratio at 6 h, 1 µM (ABCG2 [3]) was 1.33, the efflux ratio at 6 h, 10 µM (ABCG2 [3]) was 1.26 and the ABCB1 substrate status (ABCB1 [4]; human, MDCK-MDR1) was “not an ABCB1 substrate”. The efflux ratio at 6 h, 1 µM (ABCB1 [4]; human, MDCK-MDR1) was 1.36, the efflux ratio at 6 h, 10 µM (ABCB1 [4]; human, MDCK-MDR1) was 1.26 and the efflux ratio at 6 h, 1 µM (ABCB1 [5]; MDCK-MDR1) was 1.2. The efflux ratio at 6 h, 10 µM (ABCB1 [5]; MDCK-MDR1) was 1.18, the efflux ratio at 6 h, 1 µM [6] was 1.14 and the efflux ratio at 6 h, 10 µM [6] was 1.05. For the same compound, the “sulfatation in MDCKII cells” value (MDCKII cells) was “not subjected to sulfatation”, the “transport by placental ABCB1/ABCG2 in perfused rat placenta” value (placental ABCB1/ABCG2) was “showed no interactions with these transporters” and the “ABCG2 inhibitory potency compared with fumitremorgin C” value (ABCG2 [7]) was “comparable or even higher potency than fumitremorgin C”. For the same compound, the “inhibition of ABCG2” value (ABCG2 [7]) was “inhibition of ABCG2”, the “potentiation of the antiproliferative effect of mitoxantrone” value [8] was “synergistically potentiate” and the ABCG2 inhibition (ABCG2 [1]) was “ABCG2 inhibition”.
For `CC[C@H](CO)Nc1nc(NCc2ccccc2)c2ncn(C(C)C)c2n1` [roscovitine], the “transport by ABCC1” value [9] is listed as “not transported”, the “transport by ABCC2” value [10] is listed as “not transported” and the “transport by ABCG2” value (ABCG2 [11]) is listed as “not transported”. The “inhibition of ABCB1” value (ABCB1 [12]) was “significant inhibition of ABCB1”.
